Experimental data reported in ChEMBL document CHEMBL5385857, “Optimization and SAR research at the benzoxazole and tetrazole rings of JNJ4796 as new anti-influenza A virus agents, part 2” (Eur J Med Chem, 2023).
pIC50: −log10 of the molar value.

Legend:
[1] = Selectivity index, ratio of CC50 for MDCK cells to IC50 for oseltamivir-resistant influenza A virus H1N1 clinical isolate IAV/Tianjin Jinnan/15/2009 infected in MDCK cells; assay type: toxicity, cell-based; settings: dog, read-out: Ratio CC50/IC50
Influenza A virus = test: Antiviral activity against oseltamivir-resistant influenza A virus H1N1 clinical isolate IAV/Tianjin Jinnan/15/2009 infected in MDCK cells; assay type: functional, organism-based; settings: H1N1(IAV/Tianjin Jinnan/15/2009)

SMILES	selectivity ratio [1]	pIC50 (Influenza A virus)
CC(=O)Nc1ccc2oc(-c3ccnc(C(=O)N4CCN([C@H](c5ccc(F)cc5)c5nnn(C6CCCC6)n5)CC4)c3)nc2c1	198	6.36
CC(=O)Nc1ccc2oc(-c3ccnc(C(=O)N4CCN([C@@H](c5ccccc5)c5nnn(C(C)C)n5)CC4)c3)nc2c1	> 66	5.82
CCCCn1nnc([C@@H](c2ccc(F)cc2)N2CCN(C(=O)c3cc(-c4nc5cc(NC(C)=O)ccc5o4)ccn3)CC2)n1	> 454	6.66
CCCCn1nnc([C@H](c2ccc(F)cc2)N2CCN(C(=O)c3cc(-c4nc5cc(NC(C)=O)ccc5o4)ccn3)CC2)n1	> 20	5.31
CC(=O)Nc1ccc2oc(-c3ccnc(C(=O)N4CCN([C@H](c5ccc(F)cc5)c5nnn(C(C)C)n5)CC4)c3)nc2c1	> 1430	7.15
CC(=O)Nc1ccc2oc(-c3ccnc(C(=O)N4CCN([C@@H](c5ccc(F)cc5)c5nnn(CCC(C)C)n5)CC4)c3)nc2c1	> 8	4.93
C=Cn1nnc([C@@H](c2ccc(F)cc2)N2CCN(C(=O)c3cc(-c4nc5cc(NC(C)=O)ccc5o4)ccn3)CC2)n1	> 196	7.05
CC(=O)Nc1ccc2oc(-c3ccnc(C(=O)N4CCN([C@H](c5ccccc5)c5nnn(C(C)C)n5)CC4)c3)nc2c1	> 1430	7.15
CCC(CC)n1nnc([C@H](c2ccc(F)cc2)N2CCN(C(=O)c3cc(-c4nc5cc(NC(C)=O)ccc5o4)ccn3)CC2)n1	> 104	6.02
CC(=O)Nc1ccc2oc(-c3ccnc(C(=O)N4CCN([C@@H](c5ccc(F)cc5)c5nnn(C(C)C)n5)CC4)c3)nc2c1	> 43	5.64
CC(=O)Nc1ccc2oc(-c3ccnc(C(=O)N4CCN([C@@H](c5ccc(F)cc5)c5nnn(C6CCCC6)n5)CC4)c3)nc2c1	39	5.61
CCC(CC)n1nnc([C@@H](c2ccc(F)cc2)N2CCN(C(=O)c3cc(-c4nc5cc(NC(C)=O)ccc5o4)ccn3)CC2)n1	> 454	6.66
C=Cn1nnc([C@H](c2ccc(F)cc2)N2CCN(C(=O)c3cc(-c4nc5cc(NC(C)=O)ccc5o4)ccn3)CC2)n1	> 14.5	5.16
CC(=O)Nc1ccc2oc(-c3ccnc(C(=O)N4CCN([C@H](c5ccc(F)cc5)c5nnn(CCC(C)C)n5)CC4)c3)nc2c1	> 136	6.14
